According to patent publication US7045528B2, “Benzofused heterozryl amide derivatives of thienopyridines useful as therapeutic agents, pharmaceutical compositions including the same, and methods for their use” (Agouron Pharmaceuticals, Inc., priority 2002, dated 2006):
Read-outs that look alike come from different tables or passages of the source.

How the values were obtained:
[1] = target: T1, unphosphorylated VEGF-R2Δ50 (FLVK) (Homo sapiens, UniProt P35968, DEL940-989/E990V); experiment: VEGF-R2 coupled spectrophotometric assay, unphosphorylated VEGF-R2Δ50 (FLVK); format: biochemical; conditions: for inhibition at 0.05 µM: 50 nM compound, read-out: FLVK (% inh @ 50 nM); for inhibition at 0.05 µM / Ki: unphosphorylated VEGF-R2Δ50; for inhibition at 0.1 µM: percent inhibition at 100 nM, library amides from Example 101 (R101), crude mixtures in DMSO, read-out: FLVK (% @ 100 nM)
T1 construct: VEGF-R2Δ50 contains residues 806–939 and 990–1171; made in house; host or cells: baculovirus/insect cell system
T1 sequence (P35968 with tags, fused parts or gaps DEL940-989/E990V limits assumed): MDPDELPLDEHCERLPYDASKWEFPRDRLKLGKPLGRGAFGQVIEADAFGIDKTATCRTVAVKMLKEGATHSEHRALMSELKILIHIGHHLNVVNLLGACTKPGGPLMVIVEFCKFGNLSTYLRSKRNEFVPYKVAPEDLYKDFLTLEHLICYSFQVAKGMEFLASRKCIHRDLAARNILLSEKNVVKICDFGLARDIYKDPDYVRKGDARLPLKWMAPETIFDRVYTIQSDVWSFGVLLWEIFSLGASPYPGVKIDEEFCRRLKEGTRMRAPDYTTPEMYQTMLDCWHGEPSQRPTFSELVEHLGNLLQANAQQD
Text: VEGF-R2 Construct for Assay:
This construct determines the ability of a test compound to inhibit tyrosine kinase activity. A construct (VEGF-R2Δ50) of the cytosolic domain of human vascular endothelial growth factor receptor 2 (VEGF-R2) lacking the 50 central residues of the 68 residues of the kinase insert domain was expressed in a baculovirus/insect cell system. Of the 1356 residues of full-length VEGF-R2, VEGF-R2Δ50 contains residues 806–939 and 990–1171, and also one point mutation (E990V) within the kinase insert domain relative to wild-type VEGF-R2. Autophosphorylation of the purified construct was performed by incubation of the enzyme at a concentration of 4 μM in the presence of 3 mM ATP and 40 mM MgCl2 in 100 mM HEPES, pH 7.5, containing 5% glycerol and 5 mM DTT, at 4° C. for 2 h. […] See Parast et al., Biochemistry, 37, 16788–16801 (1998).
Coupled Spectrophotometric (FLVK-P) Assay
The production of ADP from ATP that accompanies phosphoryl transfer was coupled to oxidation of NADH using phosphoenolpyruvate (PEP) and a system having pyruvate kinase (PK) and lactic dehydrogenase (LDH). The oxidation of NADH was monitored by following the decrease of absorbance at 340 nm (e340=6.22 cm^−1 mM^−1) using a Beckman DU 650 spectrophotometer. Assay conditions for phosphorylated VEGF-R2Δ50 (indicated as FLVK-P in the tables below) were the following: 1 mM PEP; 250 μM NADH; 50 units of LDH/mL; 20 units of PK/mL; 5 mM DTT; 5.1 mM poly(E4Y1); 1 mM ATP; and 25 mM MgCl2 in 200 mM HEPES, pH 7.5. Assay conditions for unphosphorylated VEGF-R2Δ50 (indicated as FLVK in the tables) were the following: 1 mM PEP; 250 μM NADH; 50 units of LDH/mL; 20 units of PK/mL; 5 mM DTT; 20 mM poly(E4Y1); 3 mM ATP; and 60 mM MgCl2 and 2 mM MnCl2 in 200 mM HEPES, pH 7.5. Assays were initiated with 5 to 40 nM of enzyme. Ki values were determined by measuring enzyme activity in the presence of varying concentrations of test compounds. […] The binding inhibitions were fitted to equation as described by Morrison. The data were analyzed using Enzyme Kinetic and Kaleidagraph software.

[2] = target: T2, PDGFRβ (Homo sapiens, UniProt P09619); experiment: PAE-PDGFRβ phosphorylation in PAE-PDGFRB cells assay; format: cell-based
T2 construct: expressed in transfected cells; host or cells: porcine aorta endothelial (PAE)-PDGFRβ cells
T2 sequence (P09619 33-1106): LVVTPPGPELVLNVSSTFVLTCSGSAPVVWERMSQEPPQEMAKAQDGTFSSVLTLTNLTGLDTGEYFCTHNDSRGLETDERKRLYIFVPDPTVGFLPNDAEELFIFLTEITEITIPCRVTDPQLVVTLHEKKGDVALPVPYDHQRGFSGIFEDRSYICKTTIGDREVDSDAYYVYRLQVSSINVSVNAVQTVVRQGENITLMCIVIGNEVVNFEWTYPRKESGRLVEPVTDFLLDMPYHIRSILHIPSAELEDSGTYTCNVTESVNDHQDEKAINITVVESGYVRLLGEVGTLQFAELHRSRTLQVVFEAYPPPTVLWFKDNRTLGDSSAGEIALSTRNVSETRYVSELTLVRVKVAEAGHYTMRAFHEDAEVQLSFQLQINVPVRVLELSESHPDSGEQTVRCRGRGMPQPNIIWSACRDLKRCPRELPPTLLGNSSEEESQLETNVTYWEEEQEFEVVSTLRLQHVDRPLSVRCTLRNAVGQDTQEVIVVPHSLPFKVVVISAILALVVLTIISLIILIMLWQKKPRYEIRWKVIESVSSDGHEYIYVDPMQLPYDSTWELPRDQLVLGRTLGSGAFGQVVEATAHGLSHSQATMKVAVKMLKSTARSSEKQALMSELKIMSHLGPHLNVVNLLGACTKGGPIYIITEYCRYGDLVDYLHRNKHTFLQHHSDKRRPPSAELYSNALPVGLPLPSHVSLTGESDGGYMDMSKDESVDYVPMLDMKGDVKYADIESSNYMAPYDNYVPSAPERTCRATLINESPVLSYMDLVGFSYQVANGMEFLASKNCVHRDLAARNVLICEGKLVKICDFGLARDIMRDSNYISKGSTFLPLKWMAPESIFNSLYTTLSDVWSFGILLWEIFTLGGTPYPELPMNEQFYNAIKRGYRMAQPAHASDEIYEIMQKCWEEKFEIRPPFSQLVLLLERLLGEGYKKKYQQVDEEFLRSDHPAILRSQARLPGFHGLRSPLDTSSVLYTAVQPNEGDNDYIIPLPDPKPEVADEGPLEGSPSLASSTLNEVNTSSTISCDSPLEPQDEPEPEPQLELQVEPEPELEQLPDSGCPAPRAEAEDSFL
Method: PAE-PDGFRβ Phosphorylation in PAE-PDGFRB Cells Assay
This assay determines the ability of a test compound to inhibit the autophosphorylation of PDGFRβ in porcine aorta endothelial (PAE)-PDGFRβ cells. PAE cells that overexpress human PDGFRβ were used in this assay. The cells were cultured in Ham's F12 media supplemented with 10% fetal bovine serum (FBS) and 400 ug/ml G418. Twenty thousands cells were seeded in each well of a 96-well plate in 50 μL of growth media and allowed to attach for 6 hours at 37° C. Cells were then exposed to the starvation media (Ham's F12 media supplemented with 0.1% FBS) for 16 hours. After the starvation period was over, 10 μL of test agent in 5% DMSO in starvation media were added to the test wells and 10 μL of the vehicle (5% DMSO in starvation media) were added into the control wells. The final DMSO concentration in each well was 0.5%. Plates were incubated at 37° C. for 1 hour and the cells were then stimulated with 1 μg/mL PDGF-BB (R & D System) in the presence of 2 mM Na3VO4 for 8 minutes. The cells were washed once with 1 mm Na3VO4 in HBSS and lysed by adding 50 μL per well of lysis buffer. One hundred μL of dilution buffer were then added to each well and the diluted cell lysate was transferred to a 96-well goat ant-rabbit coated plate (Pierce), which was pre-coated with Rabbit anti Human PDGFRβ antibody (Santa Cruz). The plates were incubated at room temperature for 2 hours and washed seven times with 1% Tween 20 in PBS. HRP-PY20 (Santa Cruz) was diluted and added to the plate for a 30-minute incubation. Plates were then washed again and TMB peroxidase substrate (Kirkegaard & Perry) was added for a 10-minute incubation. One hundred μL of 0.09 N H2SO4 was added into each well of the 96-well plate to stop the reaction. Phosphorylation status was assessed by spectrophotometer reading at 450 nm. IC50 values were calculated by curve fitting using a four-parameter analysis.

[3] = PAE cells overexpressing human PDGFRβ, PDGF-BB stimulated, read-out: PAE PDGFR autophos IC50 (nM) AVG
[4] = library amides from Example 101 (R101), crude mixtures in DMSO, read-out: PAE PDGFR autophos IC50

SMILES: CNC(=O)c1c(C)n(C)c2cc(Oc3ccnc4cc(C(=O)N(C)CCCN(C)C)sc34)ccc12 [Example 32, N-[3-(Dimethylamino)propyl]-7-({1,2-dimethyl-3-[(methylamino)carbonyl]-1H-indol-6-yl}oxy)-N-methylthieno[3,2-b]pyridine-2-carboxamide]
- inhibition at 0.05 µM [1]: 22%
- Ki [1]: 39.4 nM
- IC50 [2, 3]: 29.2 nM

SMILES: Cc1oc2cc(Oc3ccnc4ccsc34)ccc2c1C(=O)Nc1cc[nH]n1
- inhibition at 0.1 µM [1]: 91%
- IC50 [2, 4]: > 100 nM

SMILES: CNC(=O)c1c(C)n(C)c2cc(Oc3ccnc4cc(C(=O)N5CC[C@@H](NC)C5)sc34)ccc12 [Example 35, 1,2-Dimethyl-6-[2-(3-methylamino-pyrrolidine-1-carbonyl)-thieno[3,2-b]pyridin-7-yloxy]-1H-indole-3-carboxylic acid methylamide]
- inhibition at 0.05 µM [1]: 23%
- Ki [1]: 35.2 nM
- IC50 [2]: 70 nM

SMILES: COC(=O)C1CN1C(=O)c1c(C)oc2cc(Oc3ccnc4ccsc34)ccc12 (stereo not shown)
- inhibition at 0.1 µM [1]: 51%
- IC50 [2, 4]: > 100 nM

SMILES: COC(=O)[C@H](Cc1c[nH]cn1)NC(=O)c1c(C)oc2cc(Oc3ccnc4ccsc34)ccc12
- inhibition at 0.1 µM [1]: 52%
- IC50 [2, 4]: 49 nM

SMILES: Cc1sc2cc(Oc3ccnc4ccsc34)ccc2c1C(=O)NCCN1CCOCC1 [Example 133, 2-Methyl 6-(thieno[3,2-b]pyridin-7-yloxy)benzo[b]thiophene-3-carboxylic acid (2-morpholin-4-yl)ethylamide]
- inhibition at 0.05 µM [1]: 40%
- Ki [1]: 5.9 nM
- IC50 [2, 3]: 468 nM

SMILES: Cc1oc2cc(Oc3ccnc4ccsc34)ccc2c1C(=O)NCCN1CCOCC1 [Example 103, 2-Methyl-6-[thieno[3,2-b]pyridin-7-yloxy]benzofuran-3-carboxylic acid (2-morpholin-4-yl-ethyl)-amide]
- inhibition at 0.05 µM [1]: 52%
- Ki [1]: 7 nM
- IC50 [2, 3]: 203 nM

SMILES: Cc1oc2cc(Oc3ccnc4ccsc34)ccc2c1C(=O)NCCN1CCOCC1 [drawing 310]
- IC50 [2, 4]: 50 nM

SMILES: CNC(=O)c1c(C)oc2cc(Oc3ccnc4ccsc34)ccc12 [Example 99, 6-[Thieno(3,2-b)pyridin-7-yloxy]-2-methyl-benzofuran-3-carboxylic acid methyl amide]
- inhibition at 0.05 µM [1]: 66%
- Ki [1]: 4.68 nM
- IC50 [2, 3]: 563 nM

SMILES: CCCCNC(=O)c1c(C)oc2cc(Oc3ccnc4ccsc34)ccc12 [Example 105, 2-Methyl-6-[Thieno(3,2-b)pyridin-7-yloxy]benzofuran-3-carboxylic acid butyl amide]
- inhibition at 0.05 µM [1]: 61%
- Ki [1]: 8.37 nM
- IC50 [2, 3]: 127 nM

SMILES: Cc1oc2cc(Oc3ccnc4ccsc34)ccc2c1C(=O)NCCC1CCCN1C (stereo not shown) [Example 110, 2-Methyl-6-(thieno[3,2-b]pyridin-7-yloxy)-benzofuran-3-carboxylic acid [2-(1-methyl-pyrrolidin-2-yl)-ethyl]-amide]
- inhibition at 0.05 µM [1]: 21%

SMILES: Cc1cc2nccc(Oc3ccc4c(C(=O)NCCN5CCOCC5)c(C)sc4c3)c2s1 [Example 139, 2-Methyl-6-(2-methylthieno[3,2-b]pyridin-7-yloxy)benzo[b]thiophene-3-carboxylic acid (2-morpholin-4-yl-ethyl)-amide]
- inhibition at 0.05 µM [1]: 40%

SMILES: CNC(=O)c1c(C)n(C)c2cc(Oc3ccnc4cc(C(=O)N5CC[C@@H](N(C)C)C5)sc34)ccc12 [Example 27, 6-[(2-{[(3R)-3-(Dimethylamino)pyrrolidin-1-yl]carbonyl}thieno[3,2-b]pyridin-7-yl)oxy]-N,1,2-trimethyl-1H-indole-3-carboxamide]
- inhibition at 0.05 µM [1]: 13%
- Ki [1]: 96 nM
- IC50 [2, 3]: 205 nM

SMILES: CO[C@@H]1CCN(C(=O)c2cc3nccc(Oc4ccc5c(C(=O)NCCO)c(C)oc5c4)c3s2)C1 [Example 93, 6-[2-(3-Methoxy-pyrrolidine-1-carbonyl)-thieno[3,2-b]pyridin-7-yloxy]-2-methyl-benzofuran-3-carboxylic acid 2-hydroxyethyl amide]
- inhibition at 0.05 µM [1]: 84%
- Ki [1]: 2.72 nM
- IC50 [2, 3]: 44 nM

SMILES: CNC(=O)c1c(C)n(C)c2cc(Oc3ccnc4cc(-c5nc(C(C)(C)O)co5)sc34)ccc12 [Example 47, 6-{2-[4-(1-Hydroxy-1-methyl-ethyl)-oxazol-2-yl]-thieno[3,2-b]pyridin-7-yloxy}1,2-dimethyl-1H-indole-3-carboxylic acid methylamide]
- inhibition at 0.05 µM [1]: 41%
- Ki [1]: 19.7 nM

SMILES: COC[C@@H]1CCCN1C(=O)c1cc2nccc(Oc3ccc4c(C(=O)NCCCO)c(C)sc4c3)c2s1 [Example 122, 6-[(2-{[(2S)-2-(Methoxymethyl)pyrrolidin-1-yl]carbonyl}thieno[3,2-b]pyridin-7-yl)oxy]-2-methylbenzo[b]thiophene-3-carboxylic acid 3-hydroxypropylamide]
- inhibition at 0.05 µM [1]: 58%
- Ki [1]: 5.14 nM
- IC50 [2, 3]: 351 nM

SMILES: CCc1c(C(=O)NC)c2ccc(Oc3ccnc4cc(-c5nccn5C)sc34)cc2n1C [Example 74, 2-Ethyl-1-methyl-6-[2-(1-methyl-1H-imidazol-2-yl)-thieno[3,2-b]pyridin-7-yloxy]-1H-indole-3-carboxylic acid methylamide]
- inhibition at 0.05 µM [1]: 43%
- Ki [1]: 12.7 nM
- IC50 [2, 3]: 313 nM

SMILES: Cc1oc2cc(Oc3ccnc4ccsc34)ccc2c1C(=O)O [Example 100, 2-Methyl-6[thieno[3,2-b]pyridin-7-yloxy]benzofuran-3-carboxylic acid]
- inhibition at 0.05 µM [1]: 0%

SMILES: Cc1cc2nccc(Oc3ccc4c(C(=O)NCCCN5CCOCC5)c(C)sc4c3)c2s1 [Example 140, 2-Methyl-6-(2-methylthieno[3,2-b]pyridin-7-yloxy)benzo[b]thiophene-3-carboxylic acid (3-morpholin-4ylpropyl)-amide]
- inhibition at 0.05 µM [1]: 90%

SMILES: Cc1cc(NC(=O)c2c(C)oc3cc(Oc4ccnc5ccsc45)ccc23)n[nH]1 [Example 111, 2-Methyl-6-(thieno[3,2-b]pyridin-7-yloxy)-benzofuran-3-carboxylic acid (5-methyl-1H-pyrazol-3-yl)-amide]
- inhibition at 0.05 µM [1]: 96%

SMILES: CNC(=O)c1c(C(F)(F)F)n(C)c2cc(Oc3ccnc4cc(-c5nccn5C)sc34)ccc12 [Example 76, 1-Methyl-6-[2-(1-methyl-1H-imidazol-2-yl)-thieno[3,2-b]pyridin-7-yloxy]-2-trifluoromethyl-1H-indole-3-carboxylic acid methylamide]
- inhibition at 0.05 µM [1]: 36%
- Ki [1]: 6.26 nM

SMILES: CNC(=O)c1c(C)n(C)c2cc(Oc3ccnc4cc(C(=O)N5CC[C@@H](N(C)C(=O)OC(C)(C)C)C5)sc34)ccc12 [Example 34, tert-Butyl-(3R)-1-{[7-({1,2-dimethyl-3-[(methylamino)carbonyl]-1H-indol-6-yl}oxy)thieno[3,2-b]pyridin-2-yl]carbonyl}pyrrolidin-3-yl(methyl)carbamate]
- inhibition at 0.05 µM [1]: 45%
- Ki [1]: 11.4 nM
- IC50 [2, 3]: 31.3 nM
